Positions count from the first letter of the chain named.
Experiments:
[1] = molecular target: T1, SCO4122 (Streptomyces coelicolor, UniProt Q9KYE8); experiment: SPR; assay type: binding
T1 sequence (Q9KYE8 1-182): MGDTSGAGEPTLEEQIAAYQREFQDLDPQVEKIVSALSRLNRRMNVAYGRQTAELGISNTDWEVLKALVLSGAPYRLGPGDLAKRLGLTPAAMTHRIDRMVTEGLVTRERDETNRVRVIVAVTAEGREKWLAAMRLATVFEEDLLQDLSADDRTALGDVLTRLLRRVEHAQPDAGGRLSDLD

[2] = molecular target: T2, SCO4122 (Streptomyces coelicolor, UniProt Q9KYE8, M93L); experiment: SPR; assay type: binding
T2 sequence (Q9KYE8 1-182 M93L): T1 sequence (Q9KYE8 1-182) with M93L

`CC[n+]1c(-c2ccccc2)c2cc(N)ccc2c2ccc(N)cc21` [EtBr] gave a Kd [1] of 1.39 µM.
`O=C(N[C@H](CO)[C@H](O)c1ccc([N+](=O)[O-])cc1)C(Cl)Cl` [chloramphenicol] was tested, and the Kd [1] was 2000 µM.
For `O=C(O)c1cn(C2CC2)c2cc(N3CCNCC3)c(F)cc2c1=O` [ciprofloxacin], the Kd [1] was 31 µM.
With `[H]/N=C(/N)N[C@H]1[C@H](O)[C@@H](O)[C@H](O[C@@H]2O[C@@H](C)[C@](O)(C=O)[C@H]2O[C@@H]2O[C@@H](CO)[C@H](O)[C@@H](O)[C@@H]2NC)[C@@H](N/C(N)=N\[H])[C@@H]1O` [streptomycin] the Kd [1] was 0.73 µM and the Kd [2] was 53.9 µM.
With `CN(C)[C@@H]1C(=O)C(C(N)=O)=C(O)[C@@]2(O)C(=O)C3=C(O)c4c(O)cccc4[C@@](C)(O)[C@H]3C[C@@H]12` [tetracycline] the Kd [1] was 2.68 µM and the Kd [2] was 2.43 µM.

— publication doi:10.1101/2024.02.28.577416v1 (biorxiv, 2024)
